{"source": "patent US11839654B2", "about": "“Combination therapy” (Eli Lilly and Company, priority 2018, dated 2023)", "origin": "cited, not measured here", "key": {"Tg4510 tau mouse model": {"test_system": "Tg4510 tau mouse model", "conditions": "Graham et al. 2014; cited from earlier work"}, "JNPL3 tau mouse model": {"test_system": "JNPL3 tau mouse model", "conditions": "Yuzwa et al. 2012; cited from earlier work"}}}
{"smiles": "CCN=C1N[C@@H]2[C@@H](O)[C@H](O)[C@@H](CO)O[C@@H]2S1", "note": "[Thiamet-G]", "values": [{"measurement": "effect on tau pathology and dystrophic neurites", "setting": "Tg4510 tau mouse model", "result": "reduction in tau pathology and dystrophic neurites"}, {"measurement": "effect on motor neuron loss", "setting": "JNPL3 tau mouse model", "result": "slowing motor neuron loss"}]}
